Test results reported in patent publication US5358951A, “Angiotensin II receptor blocking 2, 3, 6 substituted quinazolinones” (American Cyanamid Company, priority 1993, dated 1994).
Structures can show the parent of a compound that is named as a salt.

Tested on: vasopressor response of angiotensin II
Assay: AII Challenge: antagonism of angiotensin II vasopressor response;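 as to Response Average Change: post-dose Angiotensin II-evoked rise in systolic blood pressure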
Format: in vivo
Conditions: for inhibition in vivo at 0.5 mg/kg: 0.5 mg/kg i.v.; for inhibition in vivo at 0.3 mg/kg: 0.3 mg/kg i.v.
Method in brief: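 Conscious male SHR (16-20 weeks) with aortic and caval cannulae received angiotensin II at 0.05 and 0.1 ug/kg i.v. before and 30-300 min after compound dosing (i.v., i.p. or oral). Blockade is expressed as % of each rat's predose rise in systolic pressure.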

[1] = 1 mg/kg P.O., AII 0.05 mcg/kg IV, 30 min post dose, sodium salt
[2] = 1 mg/kg P.O., AII 0.05 mcg/kg IV, 90 min post dose, sodium salt
[3] = 1 mg/kg P.O., AII 0.05 mcg/kg IV, 180 min post dose, sodium salt
[4] = 1 mg/kg P.O., AII 0.05 mcg/kg IV, 240 min post dose, sodium salt
[5] = 1 mg/kg P.O., AII 0.1 mcg/kg IV, 30 min post dose, sodium salt
[6] = 1 mg/kg P.O., AII 0.1 mcg/kg IV, 240 min post dose, sodium salt
[7] = Rattus norvegicus, iv, […], AII 0.1 mcg/kg IV, 90 min post dose

For CCCCc1nc2ccc([C@@]3(C)C[C@@H]4CCCN4O3)cc2c(=O)n1Cc1ccc(-c2ccccc2-c2nnn[nH]2)cc1 (relative stereo) [Example 73, Cis-2-Butyl-6-(hexahydro-2-methylpyrrolo[1,2-b]isoxazol-2-yl)-3-[[2'-(1H-(tetrazol-5-yl)[1,1'-biphenyl-4-yl]methyl]-4(3H)-quinazolinone sodium salt], the “% Inhibition” value [1] was 31%, the “Response Average Change” value [1] was 22.5 mmHg and the “Response Average Change” value (1 mg/kg P.O., AII 0.05 mcg/kg IV, 60 min post dose, sodium salt) was 12.5 mmHg. The “% Inhibition” value [2] was 38%, the “Response Average Change” value [2] was 20 mmHg and the “Response Average Change” value (1 mg/kg P.O., AII 0.05 mcg/kg IV, 120 min post dose, sodium salt) was 12.5 mmHg. For the same compound, the “% Inhibition” value [3] was 23%, the “Response Average Change” value [3] was 25 mmHg and the “% Inhibition” value [4] was 15%. The “Response Average Change” value [4] was 27.5 mmHg, the “Response Average Change” value (1 mg/kg P.O., AII 0.05 mcg/kg IV, 300 min post dose) was 25 mmHg and the “% Inhibition” value [5] was 27%. For the same compound, the “Response Average Change” value [5] was 27.5 mmHg, the “Response Average Change” value (1 mg/kg P.O., AII 0.1 mcg/kg IV, 60 min post dose, sodium salt) was 20 mmHg and the “Response Average Change” value (1 mg/kg P.O., AII 0.1 mcg/kg IV, 90 min post dose, sodium salt) was 22.5 mmHg. The “Response Average Change” value (1 mg/kg P.O., AII 0.1 mcg/kg IV, 120 min post dose) was 22.5 mmHg, the “Response Average Change” value (1 mg/kg P.O., AII 0.1 mcg/kg IV, 180 min post dose, sodium salt) was 22.5 mmHg and the “% Inhibition” value [6] was 33%. The “Response Average Change” value [6] was 25 mmHg, the “Response Average Change” value (1 mg/kg P.O., AII 0.1 mcg/kg IV, 300 min post dose) was 22.5 mmHg and the “% Inhibition” value (1 mg/kg i.v., AII 0.05 mcg/kg IV, 60 min post dose) was 83%. For the same compound, the inhibition in vivo at 0.5 mg/kg (Rattus norvegicus, iv, 0.5 h, AII 0.05 mcg/kg IV, 30 min post dose) was 73%, the inhibition in vivo at 0.5 mg/kg (Rattus norvegicus, iv, 0.5 h, AII 0.1 mcg/kg IV, 30 min post dose) was 67% and the inhibition in vivo at 1 mg/kg (Rattus norvegicus, iv, 0.5 h, 1 mg/kg i.v., AII 0.05 mcg/kg IV, 30 min post dose) was 83%. For the same compound, the inhibition in vivo at 1 mg/kg (Rattus norvegicus, iv, 0.5 h, 1 mg/kg i.v., AII 0.1 mcg/kg IV, 30 min post dose) was 74%, the inhibition in vivo at 0.1 mg/kg (Rattus norvegicus, iv, 1 h, 0.1 mg/kg i.v., AII 0.05 mcg/kg IV, 60 min post dose) was 40% and the inhibition in vivo at 0.3 mg/kg (Rattus norvegicus, iv, 1 h, AII 0.1 mcg/kg IV, 60 min post dose) was 25%. It also gave an inhibition in vivo at 0.5 mg/kg (Rattus norvegicus, iv, 1 h, AII 0.05 mcg/kg IV, 60 min post dose) of 71%, an inhibition in vivo at 1 mg/kg (Rattus norvegicus, iv, 1 h, 1 mg/kg i.v., AII 0.05 mcg/kg IV, 60 min post dose) of 83% and an inhibition in vivo at 1 mg/kg (Rattus norvegicus, iv, 1 h, 1 mg/kg i.v., AII 0.1 mcg/kg IV, 60 min post dose) of 65%. It also gave an inhibition in vivo at 0.3 mg/kg (Rattus norvegicus, iv, 2 h, AII 0.05 mcg/kg IV, 120 min post dose) of 41%, an inhibition in vivo at 0.3 mg/kg (Rattus norvegicus, iv, 2 h, AII 0.1 mcg/kg IV, 120 min post dose) of 38% and an inhibition in vivo at 1 mg/kg (Rattus norvegicus, iv, 2 h, 1 mg/kg i.v., AII 0.05 mcg/kg IV, 120 min post dose) of 83%. The inhibition in vivo at 1 mg/kg (Rattus norvegicus, iv, 2 h, 1 mg/kg i.v., AII 0.1 mcg/kg IV, 120 min post dose) was 86%, the inhibition in vivo at 0.3 mg/kg (Rattus norvegicus, iv, 3 h, AII 0.05 mcg/kg IV, 180 min post dose) was 36% and the inhibition in vivo at 1 mg/kg (Rattus norvegicus, iv, 3 h, 1 mg/kg i.v., AII 0.05 mcg/kg IV, 180 min post dose) was 72%. For the same compound, the inhibition in vivo at 1 mg/kg (Rattus norvegicus, iv, 3 h, 1 mg/kg i.v., AII 0.1 mcg/kg IV, 180 min post dose) was 42%, the inhibition in vivo at 0.3 mg/kg (Rattus norvegicus, iv, 4 h, AII 0.05 mcg/kg IV, 240 min post dose) was 23% and the inhibition in vivo at 0.5 mg/kg (Rattus norvegicus, iv, 4 h, AII 0.1 mcg/kg IV, 240 min post dose) was 39%. For the same compound, the inhibition in vivo at 1 mg/kg (Rattus norvegicus, iv, 4 h, 1 mg/kg i.v., AII 0.1 mcg/kg IV, 240 min post dose) was 74%, the inhibition in vivo at 1 mg/kg (Rattus norvegicus, iv, 5 h, 1 mg/kg i.v., AII 0.05 mcg/kg IV, 300 min post dose) was 50% and the inhibition in vivo at 1 mg/kg (Rattus norvegicus, iv, 5 h, 1 mg/kg i.v., AII 0.1 mcg/kg IV, 300 min post dose) was 60%. The inhibition in vivo at 0.3 mg/kg (Rattus norvegicus, iv, […], AII 0.05 mcg/kg IV, 90 min post dose) was 48%, the inhibition in vivo at 0.3 mg/kg [7] was 29% and the inhibition in vivo at 0.5 mg/kg [7] was 50%. It also gave an inhibition in vivo at 1 mg/kg (Rattus norvegicus, iv, […], 1 mg/kg i.v., AII 0.05 mcg/kg IV, 90 min post dose) of 83%, an inhibition in vivo at 1 mg/kg (Rattus norvegicus, iv, […], 1 mg/kg i.v., AII 0.1 mcg/kg IV, 90 min post dose) of 79% and an inhibition in vivo at 1 mg/kg (Rattus norvegicus, po, 1 h, 1 mg/kg P.O., AII 0.05 mcg/kg IV, 60 min post dose) of 62%. The inhibition in vivo at 1 mg/kg (Rattus norvegicus, po, 1 h, 1 mg/kg P.O., AII 0.1 mcg/kg IV, 60 min post dose) was 47%, the inhibition in vivo at 1 mg/kg (Rattus norvegicus, po, 2 h, 1 mg/kg P.O., AII 0.05 mcg/kg IV, 120 min post dose) was 62% and the inhibition in vivo at 1 mg/kg (Rattus norvegicus, po, 2 h, 1 mg/kg P.O., AII 0.1 mcg/kg IV, 120 min post dose) was 40%. The inhibition in vivo at 1 mg/kg (Rattus norvegicus, po, 3 h, 1 mg/kg P.O., AII 0.1 mcg/kg IV, 180 min post dose) was 40%, the inhibition in vivo at 1 mg/kg (Rattus norvegicus, po, 5 h, 1 mg/kg P.O., AII 0.05 mcg/kg IV, 300 min post dose) was 23% and the inhibition in vivo at 1 mg/kg (Rattus norvegicus, po, 5 h, 1 mg/kg P.O., AII 0.1 mcg/kg IV, 300 min post dose) was 40%. The inhibition in vivo at 1 mg/kg (Rattus norvegicus, po, […], 1 mg/kg P.O., AII 0.1 mcg/kg IV, 90 min post dose) was 40%.
